Data published in patent US20250179499A1, “USE OF CDK16 AS TARGET IN PREPARATION OF MEDICINE FOR TREATING TRIPLE-NEGATIVE BREAST CANCER” (SHENZHEN TYERCAN BIO-PHARM CO., LTD., priority 2022, published 2025).

Tests used:
MDA-MB-231 xenografts = assay: Growth of MDA-MB-231 xenografts transplanted in situ into mammary gland fat pads; format: in vivo, mice; conditions: Rebastinib 80 mg/kg by gavage, 13 days, vs solvent control; FIG. 5A-5D
From the text: Lentivirus-infected breast tumor cells were resuspended with 50% of FBS (diluted with PBS), added with Matrigel at a volume ratio of 1:1, then added with 0.04% of trypan blue, mixed well, and placed on ice until inoculation into mice. After the mouse was anesthetized, it was placed on an experimental table with its abdomen facing upwards, and a “Y”-shaped opening was cut in its abdominal epidermis along a midline and the direction of the lower limbs on both sides with scissors (without cutting the peritoneum). The opening was peeled off to both sides with cotton swabs and tweezers to expose the fourth pair of mammary gland fat pads, and the epidermis was fixed with needles. 10-20 μL of a cell suspension was drawn up with a syringe and injected into the mammary gland fat pads. Finally, the skin on both sides was closed and sutured with surgical staples. The surgical staples could be removed after the wound healed. Since the surgery, the occurrence of tumors in the mouse was observed and recorded every day. After about one week, the length and width of the tumor were measured with a vernier caliper and recorded, and the change in the weight of the mouse was monitored. The tumor volume was calculated by the following formula: Volume (mm^3)=length×width×width×0.52.
(§1) The tumor cell line was transplanted in situ as that in Example 1. When the tumor size reached […], the mice were divided into a control group (solvent) and a group administrated with Rebastinib (80 mg/kg), with 3 mice in each group. The mice were administrated by gavage continuously (administrated with MDA-MB-231 xenografts for 13 days and administrated with PDX for 11 days), during which the mice were weighed every day, and the tumor size was measured every three days. After completion of the administration, the mice were sacrificed and the tumors were weighed.

TNBC-type PDX tumors = assay: Growth of TNBC-type PDX tumors; format: in vivo, NSG mice; conditions: Rebastinib 80 mg/kg by gavage, 11 days, vs solvent control; FIG. 5H-5K
Procedure: Primary tumor cells from the patient infected with the lentivirus were in-situ injected into the fourth pair of mammary gland fat pads of the NSG mice according to the method described in 3, and the occurrence of tumors was observed and recorded.
as §1

TNBC-type PDOs = assay: Growth of TNBC PDO (patient-derived organoids in Matrigel); format: cell-based, human; conditions: 1 μM and 5 μM
Procedure: The primary tumor cells from the patient infected with the lentivirus were resuspended with pre-cooled Matrigel to a concentration of 2× 10^4 cells/50 μL Matrigel. The Matrigel was added dropwise into a 24-well culture plate and allowed to stand at 37° C. for 15-20 min. After confluence, the cells were added with a breast cancer tumor organoid culture medium for culture, the culture medium was replaced by a fresh culture medium every three days, and the number and size of organoid growth were counted.
Similar to the PDO model establishment operation in Example 1, the primary tumor cells derived from TNBC patients were resuspended with pre-cooled Matrigel to a concentration of 2×10^4 cells/50 μL Matrigel. The Matrigel was added dropwise into a 24-well culture plate and allowed to stand at 37° C. for 15-20 min. After confluence, the cells were added with a breast cancer tumor organoid culture medium for culture, and the culture medium was replaced by a fresh culture medium every three days. The PDOs were divided into 6 groups, including an untreated group, a solvent control group, groups administrated with low and high doses of Abemaciclib (with doses of 1 μM and 5 μM, respectively), and groups administrated with low and high doses of Rebastinib (with doses of 1 μM and 5 μM, respectively). After three days of culture, the PDOs were started to be treated by addition of a drug according to groups. The size and number of organoids were counted after one week.

CNC(=O)c1cc(Oc2ccc(NC(=O)Nc3cc(C(C)(C)C)nn3-c3ccc4ncccc4c3)c(F)c2)ccn1 [Rebastinib]
sizes of MDA-MB-231 tumors (MDA-MB-231 xenografts): significantly inhibits
volumes of MDA-MB-231 tumors (MDA-MB-231 xenografts): significantly inhibits
weights of MDA-MB-231 tumors (MDA-MB-231 xenografts): significantly inhibits
sizes of TNBC-type PDX tumors (TNBC-type PDX tumors): significantly inhibits
volumes of TNBC-type PDX tumors (TNBC-type PDX tumors): significantly inhibits
weights of TNBC-type PDX tumors (TNBC-type PDX tumors): significantly inhibits
sizes of TNBC-type PDOs (TNBC-type PDOs; counted after one week, FIG. 5E): significantly inhibits
number of TNBC-type PDOs (TNBC-type PDOs; counted after one week, FIG. 5F): significantly reduces
apoptosis of TNBC-type PDOs (TNBC-type PDOs; FIG. 5G): promotes
proliferation of TNBC-type PDOs (TNBC-type PDOs; FIG. 5G): significantly inhibits
